Source: ChEMBL document CHEMBL1201862, “PubChem BioAssay data set” (2004)
Activity calls are given as the source filed them.

Tests used:
[1] = molecular target: E3 ubiquitin-protein ligase Mdm2 (Homo sapiens, UniProt Q00987); assay: MDM2-luc reporter signal enhancers, multi-concentration potency testing, MDM2 ubiquitin-protein ligase inhibitor program, whole-cell format, luminescence detection, 384-well microplate (AID 1394); assay type: functional;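 also: MDM2 E3 inhibitors raise luminescence so EC50 is for signal enhancement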
[2] = viability of uninfected HEp-2 cells – cell-based, HTS, cytotoxicity control for RSV inhibitor project, dose response (AID 2410); assay type: functional; conditions: human respiratory syncytial virus
[3] = cells
[4] = molecular target: T1, Tyrosine-protein phosphatase non-receptor type 7 (Homo sapiens, UniProt P35236); assay: HePTP tyrosine phosphatase activity blockers – biochemical, absorbance, leukemia target, primary screen (AID 521); assay type: functional
T1 sequence (P35236 whole entry): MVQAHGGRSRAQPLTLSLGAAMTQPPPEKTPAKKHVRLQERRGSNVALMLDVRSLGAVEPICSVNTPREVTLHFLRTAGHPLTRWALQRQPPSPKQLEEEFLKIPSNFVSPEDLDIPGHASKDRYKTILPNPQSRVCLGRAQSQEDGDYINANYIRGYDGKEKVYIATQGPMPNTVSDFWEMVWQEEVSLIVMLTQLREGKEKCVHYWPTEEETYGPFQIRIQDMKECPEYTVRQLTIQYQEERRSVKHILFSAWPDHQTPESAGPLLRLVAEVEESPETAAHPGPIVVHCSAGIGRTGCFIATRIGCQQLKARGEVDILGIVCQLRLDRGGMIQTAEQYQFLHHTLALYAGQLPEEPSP

[5] = test system: BJ; assay: BJ-TERT fibroblast viability loss – cell-based, RAS-independent, luminescence, dose response (AID 1933); assay type: functional; conditions: Homo sapiens
[6] = test system: BJ; assay: BJ-TERT-LT-ST fibroblast viability loss – cell-based, RAS-independent, luminescence, dose response (AID 1935); assay type: functional; conditions: Homo sapiens;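 also: BJ fibroblasts immortalized with TERT plus LT and ST oncogenes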
[7] = test system: BJ; assay: cells; assay type: functional, cell-based; conditions: Homo sapiens
[8] = non-specific 3'UTR reporter inhibition in Clone20-Shn3RL – cell-based, Renilla luciferase, cherry-picked, counter-screen for Shn3 inhibitor project, dose response (AID 624133); assay type: functional
[9] = reduction of Shn3 3'UTR-driven luciferase in osteoblasts – cell-based, Clone20 osteoblasts, firefly luciferase, cherry-picked, dose response (AID 624132); assay type: functional;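 also: firefly luciferase luminescence from reporter carrying the Shn3 3'UTR in osteoblasts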
[10] = HEK-293T viability loss after treatment – luminescence, T-cell screen hits, cytotoxicity control for TCR NF-kB inhibitor project, dose response (AID 489026); assay type: functional, cell-based;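 also: cells exposed to compound about 14 hours before the viability readout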
[11] = loss of viability in HepG2 cells – cell-based, CellTiter-Glo, cherry-picked, cytotoxicity control for Shn3 inhibitor project, dose response (AID 624134); assay type: functional
[12] = DRD fibroblast viability loss – cell-based, non-viral oncogenic, luminescence, dose response (AID 1934); assay type: functional; conditions: Homo sapiens
[13] = molecular target: T2, Heat shock factor protein 1 (Mus musculus, UniProt P38532); assay: decrease of HSF1-responsive luciferase luminescence – cell-based, NIH3T3, dose retest, confirmation (AID 2382); assay type: functional;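 also: NIH3T3 fibroblasts with HSF1-driven luciferase reporter stressed by proteasome inhibitor MG132; luminescence from HSF1-driven luciferase expression after 8 hours of MG132 stress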
T2 sequence (P38532 whole entry): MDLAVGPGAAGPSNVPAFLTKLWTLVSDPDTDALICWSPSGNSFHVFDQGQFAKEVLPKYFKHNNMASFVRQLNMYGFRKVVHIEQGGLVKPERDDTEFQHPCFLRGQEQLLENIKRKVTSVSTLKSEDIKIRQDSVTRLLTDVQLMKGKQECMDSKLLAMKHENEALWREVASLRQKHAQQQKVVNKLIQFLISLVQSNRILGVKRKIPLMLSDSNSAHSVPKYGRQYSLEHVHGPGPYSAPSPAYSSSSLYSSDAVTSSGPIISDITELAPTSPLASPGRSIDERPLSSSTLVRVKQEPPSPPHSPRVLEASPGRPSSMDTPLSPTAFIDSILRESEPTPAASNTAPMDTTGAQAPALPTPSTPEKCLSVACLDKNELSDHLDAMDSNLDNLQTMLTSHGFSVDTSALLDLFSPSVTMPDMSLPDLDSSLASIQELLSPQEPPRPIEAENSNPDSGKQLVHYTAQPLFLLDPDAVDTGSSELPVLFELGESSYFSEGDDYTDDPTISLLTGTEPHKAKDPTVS

[14] = molecular target: Ephrin type-A receptor 4 (Mus musculus, UniProt Q03137); assay: EphA4 ligand-binding antagonists – biochemical, colorimetric, mouse EphA4, primary screen (AID 689); assay type: functional
[15] = molecular target: T3, Corticotropin-releasing factor receptor 2/Corticotropin-releasing factor-binding protein (Homo sapiens, UniProt P24387+Q13324); assay: activators of CRF receptor 2 with binding protein – uHTS hits, confirmation (AID 602473); assay type: functional; conditions: read-out: EC50_Mean
T3 sequence (Q13324 whole entry): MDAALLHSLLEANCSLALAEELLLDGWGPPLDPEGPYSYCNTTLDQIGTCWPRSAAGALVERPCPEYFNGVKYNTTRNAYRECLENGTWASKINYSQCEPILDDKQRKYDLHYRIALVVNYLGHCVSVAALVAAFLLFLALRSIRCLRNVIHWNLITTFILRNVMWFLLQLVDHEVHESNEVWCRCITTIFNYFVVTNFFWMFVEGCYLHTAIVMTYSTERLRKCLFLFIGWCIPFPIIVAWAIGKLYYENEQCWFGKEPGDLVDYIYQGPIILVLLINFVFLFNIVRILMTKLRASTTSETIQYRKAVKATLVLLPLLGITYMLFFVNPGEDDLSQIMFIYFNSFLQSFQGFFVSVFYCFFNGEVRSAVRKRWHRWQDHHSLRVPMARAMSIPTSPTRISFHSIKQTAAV
T3 sequence (P24387 whole entry): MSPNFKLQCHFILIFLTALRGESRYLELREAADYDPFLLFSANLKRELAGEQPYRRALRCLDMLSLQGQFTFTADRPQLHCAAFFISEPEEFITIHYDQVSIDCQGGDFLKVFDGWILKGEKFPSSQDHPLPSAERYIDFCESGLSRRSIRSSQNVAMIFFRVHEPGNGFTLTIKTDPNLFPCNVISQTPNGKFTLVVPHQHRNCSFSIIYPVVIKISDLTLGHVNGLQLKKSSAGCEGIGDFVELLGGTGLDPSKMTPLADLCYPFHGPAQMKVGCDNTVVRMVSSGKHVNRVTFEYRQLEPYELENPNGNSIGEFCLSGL

[16] = test system: INS1; assay: INS-1E survival protection against cytokine death – cell-based, luminescence, retest, dose response (AID 449756); assay type: functional; conditions: Rattus norvegicus;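 also: cell death triggered by IL-1 beta plus TNF-alpha plus IFN-gamma mixture; protective hits raise ATP signal compared with cytokine alone wells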
[17] = molecular target: Oxytocin receptor (Homo sapiens, UniProt P30559); assay: Fluorescence-based cell-based high throughput dose response assay for agonists of the Oxytocin Receptor (OXTR). [Related pubchem assays: 2435 (Primary screen (OXTR agonists in singlicate)), 434991 (Counterscreen (V1R agonists in triplicate)), 2482 (Summary (OXTR agonists)), 434963 (Confirmation screen (OXTR agonists in triplicate))]; assay type: functional
[18] = molecular target: Vasopressin V1a receptor (Homo sapiens, UniProt P37288); assay: Counterscreen for Oxytocin Receptor (OXTR) agonists: Fluorescence-based cell-based high throughput dose response assay to identify agonists of the vasopressin 1 receptor (V1R). [Related pubchem assays: 2435 (Primary screen (OXTR agonists in singlicate)), 434991 (Counterscreen (V1R agonists in triplicate)), 2482 (Summary (OXTR agonists)) …; assay type: functional
[19] = molecular target: T4, Oxysterols receptor LXR-beta (Homo sapiens, UniProt P55055); assay type: functional, cell-based;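 also: Cell-based luminescence dose-response assay of agonist activity at LXR, run as a confirmatory counterscreen to a daf-12 agonist screen; HEK293 cells with Gal4-LXR fusion and GAL4-driven luciferase reporter; agonist potency from rising luciferase signal of a Gal4-LXR reporter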
T4 sequence (P55055 whole entry): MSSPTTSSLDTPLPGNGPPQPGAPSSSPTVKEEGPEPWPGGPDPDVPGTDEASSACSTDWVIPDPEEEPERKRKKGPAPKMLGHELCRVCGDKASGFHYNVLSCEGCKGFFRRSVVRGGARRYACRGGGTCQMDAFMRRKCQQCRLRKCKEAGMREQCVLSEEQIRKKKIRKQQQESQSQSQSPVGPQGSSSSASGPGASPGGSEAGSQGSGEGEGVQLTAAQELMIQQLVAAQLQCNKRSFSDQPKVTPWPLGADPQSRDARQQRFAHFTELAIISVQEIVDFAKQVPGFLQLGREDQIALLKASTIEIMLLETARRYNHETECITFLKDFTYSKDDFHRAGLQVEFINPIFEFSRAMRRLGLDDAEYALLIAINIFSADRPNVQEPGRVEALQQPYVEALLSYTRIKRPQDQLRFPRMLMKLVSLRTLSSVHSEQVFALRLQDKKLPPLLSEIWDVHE

[20] = cells; remark: listed apart in the source
[21] = Luminescence Cell-Based Dose Confirmation to Identify Activators of 5'UTR Stem-Loop Driven Alpha-Synuclein mRNA Translation in H4 Neuroglioblastoma Cells. [Related pubchem assays: 1829 (Project Summary), 1814 (Primary HTS)]; assay type: functional
[22] = Luminescence Cell-Based Dose Response HTS to Identify Activators of Luciferase Translation or Activity in H4 […] Cells. [Related pubchem assays: 1829 (Project Summary), 1814 (Primary HTS)]; assay type: functional
[23] = test system: H4; assay: Luminescence Cell-Based Dose Response HTS to Identify Activators of 5'UTR Stem-Loop Driven Prion Protein mRNA Translation in H4 Neuroglioblastoma Cells. [Related pubchem assays: 1829 (Project Summary), 1814 (Primary HTS)]; assay type: functional; conditions: Homo sapiens
[24] = microbe, parasite or virus in culture; assay type: functional; conditions: Mycobacterium tuberculosis
[25] = Luminescence Cell-Based Dose Response to Identify Activators of 5'UTR Stem-Loop Driven Prion Protein mRNA Translation in H4-C Neuroglioblastoma Cells. [Related pubchem assays: 1829 (Project Summary), 1814 (Primary HTS)]; assay type: functional
[26] = Luminescence Cell-Based Dose Response to Identify Activators of Luciferase Translation or Activity in H4-C Neuroglioblastoma Cells. [Related pubchem assays: 1829 (Project Summary), 1814 (Primary HTS)]; assay type: functional
[27] = Luminescence Cell-Based Dose Confirmation HTS to Identify Activators of 5'UTR Stem-Loop Driven Alpha-Synuclein mRNA Translation in H4 Neuroglioblastoma Cells. [Related pubchem assays: 1829 (Project Summary), 1814 (Primary HTS)]; assay type: functional
[28] = HGIII-sPLA2 enzyme inhibition potency – biochemical, QFRET, IC50, dose response (AID 743457);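 also: green fluorescence rise as the enzyme cleaves BODIPY PC-A2 in liposomes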

E3 ubiquitin-protein ligase Mdm2, sequence (Q00987 whole entry): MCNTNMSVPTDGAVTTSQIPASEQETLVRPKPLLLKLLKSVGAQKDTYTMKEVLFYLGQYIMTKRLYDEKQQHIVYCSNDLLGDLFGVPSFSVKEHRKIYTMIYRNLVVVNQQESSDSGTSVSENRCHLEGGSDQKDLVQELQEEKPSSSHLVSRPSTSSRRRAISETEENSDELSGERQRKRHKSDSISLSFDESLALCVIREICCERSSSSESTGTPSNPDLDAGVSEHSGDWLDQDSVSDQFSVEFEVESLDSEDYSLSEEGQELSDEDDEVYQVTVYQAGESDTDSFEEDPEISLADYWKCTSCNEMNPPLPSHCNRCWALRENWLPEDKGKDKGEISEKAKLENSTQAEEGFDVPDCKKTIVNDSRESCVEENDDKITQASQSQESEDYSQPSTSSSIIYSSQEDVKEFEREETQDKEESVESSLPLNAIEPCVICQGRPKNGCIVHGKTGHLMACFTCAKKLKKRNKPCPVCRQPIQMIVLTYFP
Ephrin type-A receptor 4, sequence (Q03137 whole entry): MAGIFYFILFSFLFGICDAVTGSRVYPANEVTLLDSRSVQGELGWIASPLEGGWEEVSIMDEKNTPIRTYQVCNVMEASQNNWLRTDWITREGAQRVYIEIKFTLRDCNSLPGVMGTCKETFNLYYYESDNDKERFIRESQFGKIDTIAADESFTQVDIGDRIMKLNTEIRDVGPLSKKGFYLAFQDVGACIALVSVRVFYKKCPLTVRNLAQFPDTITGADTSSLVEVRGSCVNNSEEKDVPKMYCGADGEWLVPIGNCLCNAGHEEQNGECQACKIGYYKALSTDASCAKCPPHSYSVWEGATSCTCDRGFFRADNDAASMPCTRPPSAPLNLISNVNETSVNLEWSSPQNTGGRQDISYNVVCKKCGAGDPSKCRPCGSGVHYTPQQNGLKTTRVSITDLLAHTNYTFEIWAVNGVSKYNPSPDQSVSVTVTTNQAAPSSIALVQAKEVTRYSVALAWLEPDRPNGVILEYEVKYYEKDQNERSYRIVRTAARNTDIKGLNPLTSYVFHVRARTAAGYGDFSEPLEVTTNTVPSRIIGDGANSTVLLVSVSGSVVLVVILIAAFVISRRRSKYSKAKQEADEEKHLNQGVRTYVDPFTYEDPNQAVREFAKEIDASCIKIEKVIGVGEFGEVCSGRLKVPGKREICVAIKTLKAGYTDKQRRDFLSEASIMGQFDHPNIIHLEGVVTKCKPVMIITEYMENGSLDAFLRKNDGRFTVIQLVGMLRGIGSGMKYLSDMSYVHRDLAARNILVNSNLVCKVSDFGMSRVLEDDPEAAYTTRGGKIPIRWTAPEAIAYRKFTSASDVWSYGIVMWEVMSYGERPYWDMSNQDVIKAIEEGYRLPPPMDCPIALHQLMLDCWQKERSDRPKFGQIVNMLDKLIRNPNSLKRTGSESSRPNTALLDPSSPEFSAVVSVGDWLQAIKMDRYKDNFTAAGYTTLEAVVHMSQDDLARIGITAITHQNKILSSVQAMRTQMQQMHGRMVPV
Vasopressin V1a receptor, sequence (P37288 whole entry, the tested form may be a part): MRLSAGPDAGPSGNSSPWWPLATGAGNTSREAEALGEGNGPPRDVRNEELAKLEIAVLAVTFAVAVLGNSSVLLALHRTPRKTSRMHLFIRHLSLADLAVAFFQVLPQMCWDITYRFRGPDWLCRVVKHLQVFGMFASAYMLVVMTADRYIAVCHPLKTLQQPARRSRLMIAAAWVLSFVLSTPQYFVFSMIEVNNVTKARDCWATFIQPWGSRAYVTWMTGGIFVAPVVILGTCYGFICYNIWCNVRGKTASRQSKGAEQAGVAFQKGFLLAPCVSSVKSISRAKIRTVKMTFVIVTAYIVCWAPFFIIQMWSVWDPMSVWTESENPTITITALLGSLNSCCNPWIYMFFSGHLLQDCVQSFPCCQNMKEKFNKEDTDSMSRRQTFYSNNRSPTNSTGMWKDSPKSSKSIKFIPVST
Oxytocin receptor, sequence (P30559 whole entry): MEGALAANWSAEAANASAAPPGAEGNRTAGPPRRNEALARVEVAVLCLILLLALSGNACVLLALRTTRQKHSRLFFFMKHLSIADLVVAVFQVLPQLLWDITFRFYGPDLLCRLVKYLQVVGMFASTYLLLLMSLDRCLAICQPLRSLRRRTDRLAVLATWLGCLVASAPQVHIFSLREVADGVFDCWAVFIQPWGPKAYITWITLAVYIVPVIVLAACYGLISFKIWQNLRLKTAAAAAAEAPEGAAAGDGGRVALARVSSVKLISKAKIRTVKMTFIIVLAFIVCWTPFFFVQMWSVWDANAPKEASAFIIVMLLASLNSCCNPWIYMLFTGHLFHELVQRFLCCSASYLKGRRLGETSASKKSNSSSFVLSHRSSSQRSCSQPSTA

Cc1cc(NC(=O)C2CC2)ncc1NC(=O)C12CC3CC(CC(C3)C1)C2
EC50 [1]: 15.7 µM (not active)

O=C(Cc1cccc2ccccc12)Nc1ccccc1C(=O)O
CC50 [2]: 28.8 µM (active) | IC50 [3]: 24.4 µM (active)

Cc1cc(COc2ccccc2OCCN2CCN(C)CC2)no1
IC50 [4]: > 100 µM (not active)

C=CCSc1nc2ccccc2n1C(=O)/C=C/c1cc(OC)c(OC)c(OC)c1
EC50 [5]: 2.56 µM (inconclusive) | EC50 [6]: 3.4 µM (active) | EC50 [7]: > 150 µM (inconclusive) | AC50 [8]: 14.2 µM (active) | EC50 [1]: 0.27 µM (active) | AC50 [9]: 1.13 µM (active) | IC50 [10]: 71.8 µM (inactive) | AC50 [11]: 63.8 µM (active) | EC50 [12]: 2.66 µM (active) | EC50 [13]: 10.3 µM (inconclusive)

C=CCn1c(=O)/c(=C/c2cc(OC)c(OC)c(OC)c2)s/c1=C(/C#N)c1nc2ccccc2n1C
IC50 [14]: > 100 µM (not active) | EC50 [15]: 13.3 µM (active)

COc1cccc(/C=N/Nc2snc(SC)c2C#N)c1O
EC50 [5]: 27 µM (active) | EC50 [6]: > 150 µM (not active) | EC50 [7]: 40.4 µM (active) | AC50 [16]: 3.96 µM (active) | EC50 [17]: > 29.9 µM (not active) | EC50 [18]: > 29.9 µM (not active) | EC50 [12]: 48.3 µM (active)

C=CCS/C(N)=N\N=C\c1c(O)ccc2ccccc12
EC50 [19]: > 67.5 µM (inactive) | EC50 [20]: > 67.5 µM (inactive) | EC50 [21]: 0.426 µM (active) | EC50 [22]: 0.902 µM (active) | EC50 [23]: < 0.1 µM (active) | CC50 [24]: > 40 µM (active) | EC50 [25]: 0.313 µM (active) | EC50 [26]: 0.324 µM (active) | EC50 [27]: 9.96 µM (active) | IC50 [28]: > 122 µM (inactive)
